Consider 15 compounds from patent US8916599B2, “1H-benz imidazole-5-carboxamides as anti-inflammatory agents” (Orexo AB, priority 2008, dated 2014).

The term inhibition denotes the share of the control response that was lost under treatment.

This assay deals with T1, recombinant human mPGES-1 (Homo sapiens, UniProt O14684).
T1 construct: made in house; host or cells: Rosetta E. coli (microsomal/membrane fraction)
T1 sequence (O14684 1-152): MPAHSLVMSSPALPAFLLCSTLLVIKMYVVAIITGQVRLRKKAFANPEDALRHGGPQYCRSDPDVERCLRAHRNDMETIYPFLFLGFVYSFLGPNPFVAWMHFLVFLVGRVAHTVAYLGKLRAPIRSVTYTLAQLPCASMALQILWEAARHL
The experiment in a line: mPGES-1 inhibition test (microsomes, PGH2 substrate, HTRF detection of PGE2). In kind it is biochemical. Conditions: inhibition of mPGES-1 at 10 μM. The gist of the method: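 Bacterial microsomes with GSH-containing phosphate buffer at pH 7.4 are exposed to test compounds for 25 minutes before a one-minute PGH2 conversion. The quenched, 750-fold diluted mixture is analysed by time-resolved FRET for PGE2.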
Take `Cc1ccc(Nc2nc3cc(C(=O)Nc4ccc(Br)cc4)ccc3n2C)c(Cl)c1` [Example 512, N-(4-Bromophenyl)-2-(2-chloro-4-methylphenylamino)-1-methyl-1H-benzimidazole-5-carboxamide]: the inhibition at 10 µM stood at 99%. In the case of `COc1cc2[nH]c(Nc3c(Cl)cccc3Cl)nc2cc1C(=O)NCc1ncccc1C(F)(F)F` [Example 383, 2-(2,6-Dichlorophenylamino)-6-methoxy-N-((3-trifluoromethyl-pyridin-2-yl)-methyl)-1H-benzimidazole-5-carboxamide], the inhibition at 10 µM worked out at 100%. In the case of `COc1cc2[nH]c(Nc3c(Cl)ccc(Cl)c3F)nc2cc1C(=O)Nc1ccc(Br)cc1` [Example 602, 2-(3,6-Dichloro-2-fluoro-phenylamino)-6-methoxy-N-(4-bromophenyl)-1H-benzimidazole-5-carboxamide] it was 100%; in that of `O=C(Nc1ccc(Br)cc1)c1ccc2[nH]c(Nc3c(F)cccc3Cl)nc2c1` [compound 334], 100%. As for `O=C(Nc1ncccc1Cl)c1ccc2[nH]c(Nc3c(Cl)cccc3Cl)nc2c1` [Example 186, 2-(2,6-Dichloro-phenylamino)-1H-benzimidazole-5-carboxylic acid (3-chloro-pyridin-2-yl)-amide], the inhibition at 10 µM is 91%. `COCCn1c(Nc2c(Cl)cccc2Cl)nc2cc(C(=O)Nc3cccc(Cl)c3)ccc21` [Example 181, 2-(2,6-Dichloro-phenylamino)-1-(2-methoxy-ethyl)-1H-benzimidazole-5-carboxylic acid (3-chloro-phenyl)-amide]: the inhibition at 10 µM amounted to 100%. Consider `CN(C)c1cccc(F)c1Nc1nc2cc(C(=O)Nc3ccc(Br)cc3)ccc2n1C` [Example 551, N-(4-Bromophenyl)-2-(2-dimethylamino-6-fluorophenylamino)-1-methyl-1H-benzimidazole-5-carboxamide], for which the inhibition at 10 µM was 94%.

Regarding `CC(C)(C)[C@H]1CC[C@@H](NC(=O)c2cc3nc(Nc4c(Cl)cccc4Cl)[nH]c3cc2F)CC1` [Example 374, N-((1s,4s)-4-tert.-Butylcyclohexyl)-2-(2,6-dichlorophenylamino)-6-fluoro-1H-benzimidazole-5-carboxamide], the inhibition at 10 µM turned out to be 100%.

`Cn1c(CNC(=O)c2cc3nc(Nc4c(Cl)cccc4Cl)n(C)c3cc2F)nc2ccccc21` [Example 563, 2-(2,6-Dichlorophenylamino)-6-fluoro-1-methyl-N-((1-methyl-1H-benzo[d]imidazol-2-yl)methyl)-1H-benzimidazole-5-carboxamide]: the inhibition at 10 µM is 75%. For the compound `Cc1nc(NC(=O)c2ccc3[nH]c(Nc4c(Cl)cccc4Cl)nc3c2)ccc1Br` [Example 76, 2-(2,6-Dichloro-phenylamino)-1H-benzimidazole-5-carboxylic acid (5-bromo-6-methyl-pyridin-2-yl)-amide], the inhibition at 10 µM is 97%. In the case of `CC(C)[C@H]1CC[C@H](NC(=O)c2cc3nc(Nc4c(Cl)cccc4Cl)[nH]c3cc2F)CC1` [Example 375], the inhibition at 10 µM was found to be 100%. For `O=C(N[C@H]1CC[C@H](C(F)(F)F)CC1)c1cc2nc(Nc3c(Cl)cccc3Cl)[nH]c2cc1F` [Example 155, 2-(2,6-Dichloro-phenylamino)-6-fluoro-1H-benzimidazole-5-carboxylic acid (trans-4-trifluoromethyl-cyclohexyl)-amide], the inhibition at 10 µM came out at 100%.

Turning to `Cc1cccc(NC(=O)c2ccc3[nH]c(Nc4c(Cl)cccc4Cl)nc3c2)n1` [compound 336], the inhibition at 10 µM was 85%. In the case of `Cc1cc(Cl)cc(Cl)c1Nc1nc2cc(C(=O)Nc3ccc(Br)cc3)ccc2n1C` [Example 402, N-(4-Bromophenyl)-2-(2,4-dichloro-6-methylphenylamino)-1-methyl-1H-benzimidazole-5-carboxamide], the inhibition at 10 µM was found to be 100%. For `Cc1cc(C)nc(NC(=O)c2ccc3[nH]c(Nc4ccccc4C(F)(F)F)nc3c2)c1` [Example 118, 2-(2-Trifluoromethyl-phenylamino)-1H-benzimidazole-5-carboxylic acid (4,6-dimethyl-pyridin-2-yl)-amide], the inhibition at 10 µM stood at 80%.
